Data taken from PMC4186434, “Antagonism of human CC-chemokine receptor 4 can be achieved through three distinct binding sites on the receptor” (Pharmacology Research & Perspectives, 2013).

Each molecule was assayed against T1, human CC-chemokine receptor 4 (CCR4); CHO-CCR4 membranes (Homo sapiens, UniProt P51679) (assay: […]CCL17 displacement, scintillation proximity assay, CHO-CCR4 membranes). Conditions: read-out: [^125I]CCL17 / pKi (converted).
T1 construct: membranes
T1 sequence (P51679 1-360): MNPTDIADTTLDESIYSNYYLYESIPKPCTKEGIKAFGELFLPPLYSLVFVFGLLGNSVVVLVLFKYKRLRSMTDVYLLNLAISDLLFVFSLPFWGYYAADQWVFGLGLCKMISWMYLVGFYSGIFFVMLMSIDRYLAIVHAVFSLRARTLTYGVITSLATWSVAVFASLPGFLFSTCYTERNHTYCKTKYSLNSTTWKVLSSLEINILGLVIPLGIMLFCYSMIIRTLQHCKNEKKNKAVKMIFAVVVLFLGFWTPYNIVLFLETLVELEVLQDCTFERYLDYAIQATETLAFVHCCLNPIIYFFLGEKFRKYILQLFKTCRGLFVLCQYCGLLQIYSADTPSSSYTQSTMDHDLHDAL
Format: binding
`c1ccc2c(Nc3nc(CN(CC4CCCCC4)CC4CCCCC4)cs3)cccc2c1` [compound 1] gave a Ki of 457 nM.
Work on `COc1cccc2c1c(NS(=O)(=O)c1ccc(Cl)s1)nn2Cc1cccc(CNC(=O)OC(C)(C)C)c1` [compound 2] yielded a Ki of 18.2 nM.
Work on `COc1cccc2c1c(NS(=O)(=O)c1ccc(Cl)s1)nn2Cc1cccc(CNC(=O)C(C)(C)O)c1` [compound 3] yielded a Ki of 6.17 nM.
In the case of `O=C([C@H]1CCCCN1)N1CCN(c2nccc(NCc3ccc(Cl)cc3Cl)n2)CC1` [compound 4], the Ki is reported as 2.75 nM.
For `COc1cc2nc(N3CCC(N(C)C(=O)[C@H]4CCCN4)CC3)nc(Nc3ccc(Cl)cc3F)c2cc1OC` [compound 6], the Ki was 2 nM.
Work on `COc1nc(Br)cnc1NS(=O)(=O)c1ccc(Cl)s1` [compound 7] yielded a Ki of 29.5 nM.
